Reference: patent US20230027066A1 (Urovant Sciences GmbH, priority 2019, published 2023)

Key:
Type in all cases: in vivo, human
[1] = test system: men and women with overactive bladder; experiment: 40-week extension study (52 weeks), efficacy; details: for UUI Episodes 75% Responders at Week 52 / UUI Episodes 100% Responders at Week 52 / Urgency Episodes 50% Responders at Week 52: multiple imputation
Description: All CFB calculations used the parent study Baseline value.

[2] = Phase 3 study (75 mg), post-void residual urine volume (PVR)
Description: The risk of acute urinary retention or morbidities related to an increase in Post-Void Residual (PVR) is a concern with antimuscarinic therapy that promotes smooth muscle relaxation by inhibiting acetylcholine-induced smooth muscle contraction. If, during contraction, the bladder cannot generate enough pressure to overcome the outlet resistance in the urethra, either because of poor detrusor contractility or profound obstruction (most commonly from BPH), acute urinary retention or incomplete emptying of the bladder may result.
The volume of urine that remains in the bladder after voiding (PVR) is an objective measurement that may serve as a proxy for impaired ability to void.
PVR were performed via ultrasound at the visits indicated in the Schedule of Activities.

[3] = Phase 3 study (75 mg), adverse events
Procedure: Study assessments of safety included adverse events, physical examinations, vital signs (and weight), and clinical laboratory tests
An adverse event is any untoward medical occurrence in a patient or clinical investigation patient, temporally associated with the use of a medicinal product, whether or not considered related to the medicinal product.
Adverse Events of Clinical Interest for this study included:
Safety analyses were conducted using the SAF and summarized by treatment group as treated. The treatment-emergent period is defined as the period of time from the first dose date of the double blinded Study Treatment through 28 days after the last dose of Study Treatment, or the date of initiation of another investigational agent or surgical intervention or rollover to the extension study, whichever occurs first. Safety was assessed through summaries of adverse events, the frequency of treatment discontinuations due to adverse events, and clinical laboratory evaluations.

[4] = 40-Week treatment group, Full Analysis Set Extension
[5] = 52-Week treatment group, Full Analysis Set Extension
[6] = Males with medical history of BPH

Cc1ccc(O)c([C@H](CCN(C(C)C)C(C)C)c2ccccc2)c1 [Tolterodine ER, tolterodine, reference compound]
Micturitions, Change from Baseline at Week 52, Mean ([1]; 40-Week arm): −2.6 | UUI Episodes, Change from Baseline at Week 52, Mean ([1]; 40-Week arm): −1.5 | UUI Episodes, Week 52 Mean ([1]; 40-Week arm): 1.1 | Urgency Episodes, Change from Baseline at Week 52, Mean ([1]; 40-Week arm): −3.5 | Urgency Episodes, Week 52 Mean ([1]; 40-Week arm): 3.9 | Micturitions, Week 52 Mean ([1]; 40-Week arm, Full Analysis Set Extension): 8.8 | Total urinary incontinence episodes, Change from Baseline Mean at Week 52 [1, 4]: −1.9 | Total urinary incontinence episodes, Week 52 Mean [1, 4]: 1.2 | UUI Episodes 75% Responders at Week 52 ([1]; 40-Week treatment group): 54.0% | UUI Episodes 100% Responders at Week 52 ([1]; 40-Week treatment group): 37.8% | Urgency Episodes 50% Responders at Week 52 ([1]; 40-Week treatment group): 50.1% | Micturitions, Change from Baseline at Week 52, Mean ([1]; 52-Week arm): −2.3 | UUI Episodes, Change from Baseline at Week 52, Mean ([1]; 52-Week arm): −1.7 | UUI Episodes, Week 52 Mean ([1]; 52-Week arm): 1.4 | Urgency Episodes, Change from Baseline at Week 52, Mean ([1]; 52-Week arm): −3.5 | Urgency Episodes, Week 52 Mean ([1]; 52-Week arm): 4.7 | Micturitions, Week 52 Mean ([1]; 52-Week arm, Full Analysis Set Extension): 9.0 | Total urinary incontinence episodes, Change from Baseline Mean at Week 52 [1, 5]: −2.0 | Total urinary incontinence episodes, Week 52 Mean [1, 5]: 1.7 | UUI Episodes 75% Responders at Week 52 ([1]; 52-Week treatment group): 54.4% | UUI Episodes 100% Responders at Week 52 ([1]; 52-Week treatment group): 34.2% | Urgency Episodes 50% Responders at Week 52 ([1]; 52-Week treatment group): 51.0% | UUI Episodes, Change from Baseline LS Mean (SE) at Week 52 ([1]; 52-Weeks arm, Full Analysis Set Extension for Incontinence): −1.7 (0.17) | Micturitions, Change from Baseline LS Mean (SE) at Week 52 ([1]; 52-Weeks arm, mixed model for repeated measures): −2.0 (0.26) | Urgency episodes, Change from Baseline LS Mean (SE) at Week 52 ([1]; 52-Weeks treatment, Full Analysis Set Extension): −3.2 (0.37) | Total urinary incontinence episodes, Change from Baseline LS Mean (SE) at Week 52 ([1]; 52-Weeks treatment, Full Analysis Set Extension for Incontinence): −1.9 (0.19) | % Responders, 50% Reduction in Total Inc at Week 52 ([1]; 52-week treatment, Table 97): 62% | % Responders, 50% Reduction in UE at Week 52 ([1]; 52-week treatment, Table 97): 51% | % Responders, 75% Reduction in UUI at Week 52 ([1]; 52-week treatment, Table 97): 54% | % Responders, 100% Reduction in UUI at Week 52 ([1]; 52-week treatment, Table 97): 34% | Micturitions, Least Squares Means CFB at Week 52 ([1]; 52-week treatment, Table 97): −2.0 | Total Incontinence Episodes, Least Squares Means CFB at Week 52 ([1]; 52-week treatment, Table 97): −1.9 | UUI Episodes, Least Squares Means CFB at Week 52 ([1]; 52-week treatment, Table 97): −1.7 | Urgency Episodes (UE), Least Squares Means CFB at Week 52 ([1]; 52-week treatment, Table 97): −3.2 | Volume Voided, mean change from baseline at Week 52 ([1]; 52-week treatment, Table 97): 9 mL | PVR category at Week 12 <100 mL, patients ([2]; Females): 94.4% | PVR category at Week 12 ≥100 mL to <200 mL, patients ([2]; Females): 5.3% | PVR category at Week 12 ≥200 mL to <350 mL, patients ([2]; Females): 0.3% | PVR category at Week 12 ≥350 mL, patients ([2]; Females): 0 | PVR, Mean Change from Baseline at Week 12 (SD) ([2]; Females): 1.9 (40.24) mL | PVR category at Week 12 <100 mL, patients ([2]; Males): 85.2% | PVR category at Week 12 ≥100 mL to <200 mL, patients ([2]; Males): 11.5% | PVR category at Week 12 ≥200 mL to <350 mL, patients ([2]; Males): 3.3% | PVR category at Week 12 ≥350 mL, patients ([2]; Males): 0 | PVR, Mean Change from Baseline at Week 12 (SD) ([2]; Males): 10.2 (44.24) mL | PVR category at Week 12 <100 mL, patients [2, 6]: 71.4% | PVR category at Week 12 ≥100 mL to <200 mL, patients [2, 6]: 28.6% | PVR category at Week 12 ≥200 mL to <350 mL, patients [2, 6]: 0% | PVR category at Week 12 ≥350 mL, patients [2, 6]: 0 | PVR, Mean Change from Baseline at Week 12 (SD) [2, 6]: 3.7 (50.64) mL | PVR category at Week 12 <100 mL, patients ([2]; all patients): 86.5% | PVR category at Week 12 ≥100 mL to <200 mL, patients ([2]; all patients): 5.8% | PVR category at Week 12 ≥200 mL to <350 mL, patients ([2]; all patients): 0.7% | PVR category at Week 12 ≥350 mL, patients ([2]; all patients): 0 | PVR, Mean Change from Baseline at Week 12 (SD) ([2]; all patients): 3.1 (40.93) mL | AE: ALT increase ([3]; 12-week study): 1 (0.2) n (%) | AE: AST increase ([3]; 12-week study): 1 (0.2) n (%) | AE: Atrial fibrillation ([3]; 12-week study): 1 (0.2) n (%) | AE: Bilirubin increased ([3]; 12-week study): 1 (0.2) n (%) | AE: Blood creatinine increased ([3]; 12-week study): 1 (0.2) n (%) | AE: Blood pressure diastolic increased ([3]; 12-week study): 1 (0.2%) n (%) | AE: Blood pressure increased ([3]; 12-week study): 8 (1.9) n (%) | AE: Cardiac failure congestive ([3]; 12-week study): 0 n (%) | AE: Cerebrovascular accident ([3]; 12-week study): 1 (0.2) n (%) | AE: Chest discomfort ([3]; 12-week study): 0 n (%) | AE: Chest pain ([3]; 12-week study): 0 n (%) | AE: Chronic kidney disease ([3]; 12-week study): 0 n (%) | AE: Constipation ([3]; 12-week study): 6 (1.4) n (%) | AE: Cystitis ([3]; 12-week study): 1 (0.2) n (%) | AE: Diarrhea ([3]; 12-week study): 9 (2.1) n (%) | AE: Dizziness ([3]; 12-week study): 4 (0.9) n (%) | AE: Drug hypersensitivity ([3]; 12-week study): 0 n (%) | AE: Dry mouth ([3]; 12-week study): 28 (6.5) n (%) | AE: Dysuria ([3]; 12-week study): 0 n (%) | AE: Escherichia urinary-tract infection ([3]; 12-week study): 1 (0.2%) n (%) | AE: Fatigue ([3]; 12-week study): 6 (1.4) n (%) | AE: Glomerular filtration rate decreased ([3]; 12-week study): 2 (0.5) n (%) | AE: Headache ([3]; 12-week study): 11 (2.6) n (%) | AE: Hepatic enzyme increased ([3]; 12-week study): 1 (0.2) n (%) | AE: Hot flush ([3]; 12-week study): 1 (0.2) n (%) | AE: Hyperglycemia ([3]; 12-week study): 2 (0.5) n (%) | AE: Hypertension ([3]; 12-week study): 11 (2.6) n (%) | AE: Hypotension ([3]; 12-week study): 1 (0.2) n (%) | AE: Nasopharyngitis ([3]; 12-week study): 11 (2.6) n (%) | AE: Nausea ([3]; 12-week study): 5 (1.2) n (%) | AE: Pollakiuria ([3]; 12-week study): 0 n (%) | AE: Positional vertigo ([3]; 12-week study): 1 (0.2) n (%) | AE: Residual urine volume increased ([3]; 12-week study): 6 (1.4) n (%) | AE: Somnolence ([3]; 12-week study): 2 (0.5) n (%) | AE: Syncope ([3]; 12-week study): 1 (0.2) n (%) | AE: Tachycardia ([3]; 12-week study): 1 (0.2) n (%) | AE: Transaminases increased ([3]; 12-week study): 0 n (%) | AE: Type 2 diabetes mellitus ([3]; 12-week study): 0 n (%) | AE: Urinary retention ([3]; 12-week study): 3 (0.7) n (%) | AE: Urinary tract infection ([3]; 12-week study): 25 (5.8) n (%) | AE: Vertigo ([3]; 12-week study): 1 (0.2) n (%) | AE: Back pain ([3]; patients ≥75 years): 2.1% | AE: Diarrhea ([3]; patients ≥75 years): 4.2% | AE: Dyspnea ([3]; patients ≥75 years): 0% | AE: Nausea ([3]; patients ≥75 years): 0% | AE: Rash ([3]; patients ≥75 years): 0% | AE: Somnolence ([3]; patients ≥75 years): 2.1% | AE: Upper respiratory tract infection ([3]; patients ≥75 years): 0% | AE: Urinary retention ([3]; patients ≥75 years): 4.2% | AE: Urinary tract infection ([3]; patients ≥75 years): 8.3% | Overall AE rate ([3]; patients ≥75 years): 50.0% | Any AE of clinical interest, % ([3]; safety population): (8.8%) | Patients with at least one treatment emergent serious AEs, % ([3]; safety population): (2.3) % | SAEs resulting in death, % ([3]; safety population): (0.2) % | SAEs: Hospitalization, % ([3]; safety population): (1.9) % | SAEs: other serious criteria, % ([3]; safety population): (0.5) % | Patients with at least one treatment emergent adverse events, % ([3]; safety population, 12-week study): (38.6) % | Tachycardia rate ([3]; tolterodine ER 4 mg once daily, 12 weeks): 0.2% | Patients with at least one Serious AE ([3]; vibegron 75 mg or tolterodine ER 4 mg once daily, 12 weeks): 2.3%
